{"source": "patent US12544373B2", "about": "“Treatment of cancer, inflammatory diseases and autoimmune diseases” (Usher III Initiative, Inc., priority 2020, dated 2026)", "key": {"[1]": {"test_system": "10 human tumor cell lines", "assay": "CellTiter-Blue 2D monolayer assay (Example 1), whole panel", "assay_type": "cell-based", "description": "Compound 85 was assessed in 10 human tumor cell lines (see Table 3) for anti-cancer activity in vitro using a CellTiter-Blue® based 2D monolayer assay.\nCellTiter-Blue® Cell Viability Assay: Tumor cells were grown at 37° C. in a humidified atmosphere with 5% CO2 in RPMI medium, supplemented with 10% (v/v) fetal calf serum and 50 μg/ml gentamicin (140 μl/well). Cultures were incubated at 37° C. and 5% CO2 in a humidified atmosphere. After 24 hours, 10 μl of Compound 85 was added, and left on the cells for another 72 hours (incubation period). Compound 85 was tested at 5 concentrations (0.003 μM, 0.03 μM, 0.3 μM, 3 μM, and 30 μM) and serially diluted in DMSO, mixed with cell culture medium, and added to the assay plates by using a Tecan Freedom EVO 200 robotic platform. The DMSO concentration was kept constant at 0.3% yip across the assay plate. Every 96 well plate included six DMSO-treated control wells and Compound 85-treated wells in duplicate at 5 concentrations. Viability of cells was quantified using the CellTiter-Blue® cell viability assay (Promega G8081). After incubation of cells, the CellTiter-Blue® reagent was brought to ambient temperature. Next, 20 μl of CellTiter-Blue® reagent were added to each well. After incubation tier up to 4 hours, fluorescence (FU) was measured using the EnSpire® multimode plate reader (Perkin Elmer) ([…]).\nData Evaluation: Sigmoidal concentration-response curves were fitted to the data points (test-versus-control; T/C values) obtained for each tumor model using 4 parameter non-linear curve fit (Charles River DRS Datawarehouse Software). Drug effects are expressed in terms of the percentage of the fluorescence signal, obtained by comparison of the mean signal in the treated wells with the mean signal of the untreated controls (T/C-value [%]) (Table 4). IC50 and IC70 values were reported as relative and absolute IC50 and IC70 values (Table 5). The absolute IC50 and IC70 values reflect the concentration of Compound 85 that achieves T/C=50% and T/C=30%, respectively. The relative IC50 value is the concentration of Compound 85 that gives a response half way between the top and bottom plateau of the sigmoidal concentration-response curve (inflection point of the curve)."}, "OVXF 899": {"test_system": "OVXF 899", "assay": "CellTiter-Blue Cell Viability Assay (Example 2), ovarian", "assay_type": "cell-based, human", "conditions": "for T/C %: 72 h", "excerpt": "(§1) The CellTiter-Blue® Cell Viability Assay was used to assess the viability of cells from various cancer cell lines, in the presence or absence of Compound 85 (at different concentrations). This assay provides a homogeneous, fluorometric method for estimating the number of viable cells present in multi-well plates. Viable cells retain the ability to reduce resazurin to resorufin, which is highly fluorescent. […] The fluorescence produced is proportional to the number of viable cells. There is a linear relationship between cell number and fluorescence.\n(§2) Cancer cells (see Table 6) were harvested from exponential phase cultures, counted and plated in 96 well flat-bottom microtiter plates, at a cell density 6,000-20,000 cells/well, depending on the cell line's growth rate. The culture medium was supplemented with 10% (v/v) foetal calf serum and 50 μg/mL gentamicin (140 μL/well). Cultures were incubated at 37° C. and 5% CO2 in a humidified atmosphere.\n(§3) Compound 85 was serially diluted in DMSO, and five Compound 85 concentrations in half-log increments were used: 0.03 μM, 0.09 μM, 0.30 μM, 1.0 μM, and 3.0 μM. After 24 h, 10 μL of Compound 85 (dissolved in DMSO) or control (DMSO) medium were added, in duplicates, and left on the cells for another 72 h. Compound 85 solutions were added to the assay plates using a Tecan Freedom EVO 200 robotic platform. The DMSO concentration was kept constant at 0.3% v/v across the assay plate.\n(§4) After incubation of up to 72 hours, fluorescence (FU) was measured using the EnSpire® multimode plate reader (Perkin Elmer) (excitation λ=570 nm, emission λ=600 nm).\n(§5) Cancer cell lines used: Compound 85's anti-cancer effect was tested in 20 human cancer-cell lines representing nine cancer types (Table 6).\n(§6) The percentage of viable cells in the presence of Compound 85 (Test condition, T), at different concentrations, are presented in Table 7 and expressed as a percentage of the number of viable cells in the presence of DMSO without Compound 85 (Control condition, C).\n(§7) The relative IC50 is determined as the Compound 85 concentration giving a response halfway between the maximum cell viability signal (i.e., a 100% cell viability, no Compound 85 response) and the minimal viability signal (i.e. maximum cell viability inhibition achieved by Compound 85), in a sigmoidal concentration-effect curve.\n(§8) The absolute IC50 is determined as the concentration that is associated with a T/C ratio of 50%."}, "OVXF A2780": {"test_system": "OVXF A2780", "assay": "CellTiter-Blue Cell Viability Assay (Example 2), ovarian", "assay_type": "cell-based, human", "conditions": "for T/C %: 72 h", "excerpt": "as §1, §2, §3, §4, §5, §6, §7, §8"}, "PAXF 1657": {"test_system": "PAXF 1657", "assay": "CellTiter-Blue Cell Viability Assay (Example 2), pancreatic", "assay_type": "cell-based, human", "conditions": "for T/C %: 72 h", "excerpt": "as §1, §2, §3, §4, §5, §6, §7, §8"}, "PAXF HUP-T3": {"test_system": "PAXF HUP-T3", "assay": "CellTiter-Blue Cell Viability Assay (Example 2), pancreatic", "assay_type": "cell-based, human", "conditions": "for T/C %: 72 h", "excerpt": "as §1, §2, §3, §4, §5, §6, §7, §8"}, "SXFO 678": {"test_system": "SXFO 678", "assay": "CellTiter-Blue Cell Viability Assay (Example 2), osteosarcoma", "assay_type": "cell-based, human", "conditions": "for T/C %: 72 h", "excerpt": "as §1, §2, §3, §4, §5, §6, §7, §8"}, "SXFO Saos-2": {"test_system": "SXFO Saos-2", "assay": "CellTiter-Blue Cell Viability Assay (Example 2), osteosarcoma", "assay_type": "cell-based, human", "conditions": "for T/C %: 72 h", "excerpt": "as §1, §2, §3, §4, §5, §6, §7, §8"}, "[2]": {"conditions": "geometric mean over 10 cell lines"}}, "note": "Where “and” joins values, the source holds several entries; their conditions need not be identical. Equal entries are not always repeated. Where two headings read alike, the source gives them in different places.", "data": [{"smiles": "CC(C)(O)Cn1nc(-c2ccccc2)c2c(Cl)c(-c3ccccc3)nnc21", "note": "[Compound 85]", "values": [{"measurement": "inhibition of the tumor cell growth", "setting": "[1]; all cell lines of Table 3", "result": "concentration-dependent inhibition"}, {"measurement": "Geometric mean Abs. IC70", "setting": "[1]; [2]", "result": 1258, "unit": "nM"}, {"measurement": "Geometric mean Rel. IC70", "setting": "[1]; [2]", "result": 1226, "unit": "nM"}, {"measurement": "IC50", "setting": "[1]; geometric mean over 10 cell lines, read-out: Geometric mean Abs. IC50", "result": "950 nM and 948 nM"}, {"measurement": "IC50", "setting": "[1]; geometric mean over 10 cell lines, read-out: Geometric mean Rel. IC50", "result": 926, "unit": "nM"}, {"measurement": "Absolute IC70", "setting": "OVXF 899", "result": 418, "unit": "nM"}, {"measurement": "Relative IC70", "setting": "OVXF 899", "result": 423, "unit": "nM"}, {"measurement": "T/C %", "setting": "OVXF 899; 0.03 μM", "result": 98, "unit": "%"}, {"measurement": "T/C %", "setting": "OVXF 899; 0.095 μM", "result": 94, "unit": "%"}, {"measurement": "T/C %", "setting": "OVXF 899; 0.3 μM", "result": 65, "unit": "%"}, {"measurement": "T/C %", "setting": "OVXF 899; 0.95 μM", "result": 1, "unit": "%"}, {"measurement": "T/C %", "setting": "OVXF 899; 3.0 μM", "result": 0, "unit": "%"}, {"measurement": "IC50", "setting": "OVXF 899; read-out: Absolute IC50", "result": 346, "unit": "nM"}, {"measurement": "IC50", "setting": "OVXF 899; read-out: Relative IC50", "result": 352, "unit": "nM"}, {"measurement": "Absolute IC70", "setting": "OVXF A2780", "result": 463, "unit": "nM"}, {"measurement": "Relative IC70", "setting": "OVXF A2780", "result": 463, "unit": "nM"}, {"measurement": "T/C %", "setting": "OVXF A2780; 0.03 μM", "result": 102, "unit": "%"}, {"measurement": "T/C %", "setting": "OVXF A2780; 0.095 μM", "result": 96, "unit": "%"}, {"measurement": "T/C %", "setting": "OVXF A2780; 0.3 μM", "result": 87, "unit": "%"}, {"measurement": "T/C %", "setting": "OVXF A2780; 0.95 μM", "result": 0, "unit": "%"}, {"measurement": "T/C %", "setting": "OVXF A2780; 3.0 μM", "result": 0, "unit": "%"}, {"measurement": "IC50", "setting": "OVXF A2780; read-out: Absolute IC50", "result": 405, "unit": "nM"}, {"measurement": "IC50", "setting": "OVXF A2780; read-out: Relative IC50", "result": 406, "unit": "nM"}, {"measurement": "Absolute IC70", "setting": "PAXF 1657", "result": 1166, "unit": "nM"}, {"measurement": "Relative IC70", "setting": "PAXF 1657", "result": 1169, "unit": "nM"}, {"measurement": "T/C %", "setting": "PAXF 1657; 0.03 μM", "result": 97, "unit": "%"}, {"measurement": "T/C %", "setting": "PAXF 1657; 0.095 μM", "result": 94, "unit": "%"}, {"measurement": "T/C %", "setting": "PAXF 1657; 0.3 μM", "result": 97, "unit": "%"}, {"measurement": "T/C %", "setting": "PAXF 1657; 0.95 μM", "result": 66, "unit": "%"}, {"measurement": "T/C %", "setting": "PAXF 1657; 3.0 μM", "result": 1, "unit": "%"}, {"measurement": "IC50", "setting": "PAXF 1657; read-out: Absolute IC50", "result": 1040, "unit": "nM"}, {"measurement": "IC50", "setting": "PAXF 1657; read-out: Relative IC50", "result": 1050, "unit": "nM"}, {"measurement": "Absolute IC70", "setting": "PAXF HUP-T3", "result": 723, "unit": "nM"}, {"measurement": "Relative IC70", "setting": "PAXF HUP-T3", "result": 602, "unit": "nM"}, {"measurement": "T/C %", "setting": "PAXF HUP-T3; 0.03 μM", "result": 95, "unit": "%"}, {"measurement": "T/C %", "setting": "PAXF HUP-T3; 0.095 μM", "result": 102, "unit": "%"}, {"measurement": "T/C %", "setting": "PAXF HUP-T3; 0.3 μM", "result": 88, "unit": "%"}, {"measurement": "T/C %", "setting": "PAXF HUP-T3; 0.95 μM", "result": 21, "unit": "%"}, {"measurement": "T/C %", "setting": "PAXF HUP-T3; 3.0 μM", "result": 16, "unit": "%"}, {"measurement": "IC50", "setting": "PAXF HUP-T3; read-out: Absolute IC50", "result": 532, "unit": "nM"}, {"measurement": "IC50", "setting": "PAXF HUP-T3; read-out: Relative IC50", "result": 487, "unit": "nM"}, {"measurement": "Absolute IC70", "setting": "SXFO 678", "result": 532, "unit": "nM"}, {"measurement": "Relative IC70", "setting": "SXFO 678", "result": 531, "unit": "nM"}, {"measurement": "T/C %", "setting": "SXFO 678; 0.03 μM", "result": 101, "unit": "%"}, {"measurement": "T/C %", "setting": "SXFO 678; 0.095 μM", "result": 97, "unit": "%"}, {"measurement": "T/C %", "setting": "SXFO 678; 0.3 μM", "result": 91, "unit": "%"}, {"measurement": "T/C %", "setting": "SXFO 678; 0.95 μM", "result": 2, "unit": "%"}, {"measurement": "T/C %", "setting": "SXFO 678; 3.0 μM", "result": 1, "unit": "%"}, {"measurement": "IC50", "setting": "SXFO 678; read-out: Absolute IC50", "result": 458, "unit": "nM"}, {"measurement": "IC50", "setting": "SXFO 678; read-out: Relative IC50", "result": 458, "unit": "nM"}, {"measurement": "Absolute IC70", "setting": "SXFO Saos-2", "result": 747, "unit": "nM"}, {"measurement": "Relative IC70", "setting": "SXFO Saos-2", "result": 750, "unit": "nM"}, {"measurement": "T/C %", "setting": "SXFO Saos-2; 0.03 μM", "result": 97, "unit": "%"}, {"measurement": "T/C %", "setting": "SXFO Saos-2; 0.095 μM", "result": 93, "unit": "%"}, {"measurement": "T/C %", "setting": "SXFO Saos-2; 0.3 μM", "result": 99, "unit": "%"}, {"measurement": "T/C %", "setting": "SXFO Saos-2; 0.95 μM", "result": 1, "unit": "%"}, {"measurement": "T/C %", "setting": "SXFO Saos-2; 3.0 μM", "result": 0, "unit": "%"}, {"measurement": "IC50", "setting": "SXFO Saos-2; read-out: Absolute IC50", "result": 709, "unit": "nM"}, {"measurement": "IC50", "setting": "SXFO Saos-2; read-out: Relative IC50", "result": 712, "unit": "nM"}]}]}
